# PubChem BioAssay AID623925 (Vanderbilt Specialized Chemistry Center, 2012)
# Active and inactive are the calls of the source.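 Rule for the calls: active = compounds whose calcium response changes with concentration, giving a dose-dependent curve as judged by the depositor; inactive = the rest, with no dose-dependent response.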
# Target: Muscarinic acetylcholine receptor M2 (Homo sapiens) (UniProt P08172)
# Assay: potentiation of ACh response at hM2 – CHO cells, Gqi5 chimera, calcium mobilization, selectivity assay for M4 PAM optimization, SAR follow-up (AID 623925)
# Conditions: ACh EC20 potentiation; for % ACh max response: at 30 µM (top of the series)
# Muscarinic acetylcholine receptor M2 (Homo sapiens), sequence (P08172 whole entry, looked up): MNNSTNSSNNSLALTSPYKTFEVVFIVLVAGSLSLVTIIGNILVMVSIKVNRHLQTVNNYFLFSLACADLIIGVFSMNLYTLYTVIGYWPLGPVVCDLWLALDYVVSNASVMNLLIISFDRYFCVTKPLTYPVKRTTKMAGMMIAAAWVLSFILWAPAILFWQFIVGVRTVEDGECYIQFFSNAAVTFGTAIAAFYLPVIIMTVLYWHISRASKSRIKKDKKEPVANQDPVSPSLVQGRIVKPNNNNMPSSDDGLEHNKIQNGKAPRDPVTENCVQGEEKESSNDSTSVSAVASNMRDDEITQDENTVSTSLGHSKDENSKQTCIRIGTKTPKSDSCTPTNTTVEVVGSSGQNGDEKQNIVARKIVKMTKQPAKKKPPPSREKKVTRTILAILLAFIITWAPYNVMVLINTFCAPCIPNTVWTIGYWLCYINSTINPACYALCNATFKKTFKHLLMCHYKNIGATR
% ACh max response,outcome,SMILES,other results
inactive,–,Cc1nc2sc(C(=O)NCCc3ccncc3)c(N)c2c(C)c1Cl,–
inactive,–,Cc1nc2sc(C(=O)NCc3nccs3)c(N)c2c(C)c1Cl,–
–,inactive,Cc1nc2sc(C(=O)NCc3ccncc3)c(N)c2c(C)c1Cl,–
inactive,–,Cc1nc2sc(C(=O)NCc3ccncn3)c(N)c2c(C)c1Cl,–
–,inactive,Cc1nc2sc(C(=O)NCc3cccnc3)c(N)c2c(C)c1Cl,–

# Continued, molecule first:
SMILES,% ACh max response,outcome,other results
Cc1nc2sc(C(=O)NC3CC3)c(N)c2c(C)c1Cl,–,–,EC50: 548 nM
Cc1nc2sc(C(=O)NCc3cccc(F)c3F)c(N)c2c(C)c1Cl,inactive,–,–
Cc1nc2sc(C(=O)NCc3ccccc3)c(N)c2c(C)c1Cl,–,inactive,–
COc1ccc(C)c2sc(NC(=O)c3ccncc3)nc12,inactive,–,–
Cc1nc2sc(C(=O)NCc3ccc4c(c3)OCO4)c(N)c2c(C)c1Cl,–,inactive,–
